Measurements reported in US20060067981A1, “Contact lens with improved biocidal activity and related methods and materials” (Bausch & Lomb Incorporated, priority 2004, published 2006).
“And” between values parts separate entries of the source, which are not always exact repeats. Equal values may be shown once.

Assays:
Format in all cases: physicochemical
[1] = Uptake of domaphen bromide by lens in phosphate buffer system; conditions: % remaining in solution; for Inhibition % in 25 ppm Domiphen Bromide: 25 ppm (Solution 7); for Inhibition % in 50 ppm Domiphen Bromide: 50 ppm (Solution 8); for Inhibition % in 100 ppm Domiphen Bromide: 100 ppm (Solution 9)
Experimental: Three solutions made according to the formulation of Example 1 were made with a 25 ppm (Solution 7), 50 ppm (Solution 8) and 100 ppm (Solution 9) domaphen bromide concentrations, except the borate buffer system was replaced with an equivalent amount of a phosphate buffer system and the amount of water was adjusted accordingly. Two 3 ml portions of Solutions 7-9 in solution were placed in six separate vials. A total of six Sureview™ lens (Johnson & Johnson, New Brunswick, N.J.) were placed in the vials—one lens per each vial. The vials remained in the lens for a first 24 hour soaking cycle. After 24 hours, the lenses were removed. The amount of domaphen bromide remaining in each of the 3 ml solutions is measured by ultraviolet visible (UV/VIS) spectrometer analytical method. Inhibition % is calculated to reflect the amount of domaphen bromide that remains in the solution expressed as a percentage of the total amount of domaphen bromide. Inhibition % is recorded in Table 4 corresponding to a soaking time of 24 hours. This completed the first test cycle. The lenses removed during the first soaking cycle were placed in six fresh vials containing two 3 ml portions of solutions 7-9 to commence the second 24 hour soaking cycle. Care was taken to make sure that the solution the lens is soaked in during the second cycle is identical to the solution in the first cycle. Thus, each pair of lenses is soaked in concentrations of Solutions 7-9 identical to the concentration that the lens was soaked in during the first soak cycle. After 24 hours, the lenses are removed. The solutions are tested to determine the concentration domaphen bromide in solution. The inhibition % is calculated and recorded in Table 4 corresponding to 48 hour soak time. The lenses were again soaked for a third and fourth soak cycle. The domaphen bromide inhibition % was recorded after the third and fourth soak-cycle and recorded in Table 4 corresponding to the 72 hour and 96 hour soak times, respectively.

[2] = Uptake of domaphen bromide by lens in borate buffer system; conditions: for Inhibition % in 25 ppm Domiphen Bromide / Inhibition % in 50 ppm Domiphen Bromide / Inhibition % in 100 ppm Domiphen Bromide: Borate buffer, % remaining in solution; for Inhibition % in 25 ppm Domiphen Bromide: 25 ppm (Solution 13); for Inhibition % in 50 ppm Domiphen Bromide: 50 ppm (Solution 14); for Inhibition % in 100 ppm Domiphen Bromide: 100 ppm (Solution 15)
Experimental: Three solutions made according to the formulation of Example 1 were made with a 25 ppm (Solution 13), 50 ppm (Solution 14) and 100 ppm (Solution 15) domaphen bromide concentrations. Two 3 ml portions of Solutions 13-15 in solution were placed in six separate vials. A total of six Sureview™ lens (Johnson & Johnson, New Brunswick, N.J.) were placed in the vials—one lens per each vial. The vials remained in the lens for a first 24 hour soaking cycle. After 24 hours, the lenses were removed. The amount of domaphen bromide remaining in each of the 3 ml solutions is measured by ultraviolet visible (UV/VIS) spectrometer analytical method. Inhibition % is calculated to reflect the amount of domaphen bromide that remains in the solution expressed as a percentage of the total amount of domaphen bromide. Inhibition % is recorded in Table 6 corresponding to a soaking time of 24 hours. This completed the first test cycle. The lenses removed during the first soaking cycle were placed in six fresh vials containing two 3 ml portions of Solutions 13-15 to commence the second 24 hour soaking cycle. Care was taken to make sure that the solution the lens is soaked in during the second cycle is identical to the solution in the first cycle. Thus, each pair of lenses is soaked in concentrations of Solutions 13-15 identical to the concentration that the lens was soaked in during the first soak cycle. After 24 hours, the lenses are removed. The solutions are tested to determine the concentration domaphen bromide in solution. The inhibition % is calculated and recorded in Table 6 corresponding to 48 hour soak time. The lenses were again soaked for a third and fourth soak cycle. The domaphen bromide inhibition % was recorded after the third and fourth soak cycle and recorded in Table 6 corresponding to the 72 hour and 96 hour soak times, respectively.

[3] = Uptake of domaphen bromide by lens in tris(hydroxymethyl)aminomethane buffer system
Experimental: Three solutions made according to the formulation of Example 1 were made with a 25 ppm (Solution 4), 50 ppm (Solution 5) and 100 ppm (Solution 6) domaphen bromide concentrations, except the borate buffer system was replaced with an equivalent amount of a tris(hydroxymethyl)aminomethane buffer system and the water amount was adjusted accordingly. The term “equivalent amount” means the amount required to adjust the pH to the desired pH as another buffer. Two 3 ml portions of Solutions 4-6 in solution were placed in six separate vials. A total of six Sureview™ lens (Johnson & Johnson, New Brunswick, N.J.) were placed in the vials—one lens per each vial. The vials remained in the lens for a first 24 hour soaking cycle. After 24 hours, the lenses were removed. The amount of domaphen bromide remaining in each of the 3 ml solutions is measured by ultraviolet visible (UV/VIS) spectrometer analytical method. Inhibition % is calculated to reflect the amount of domaphen bromide that remains in the solution expressed as a percentage of the total amount of domaphen bromide. Inhibition % is recorded in Table 3 corresponding to a soaking time of 24 hours. This completed first test cycle. The lenses removed during the first soaking cycle were placed in six fresh vials containing two 3 ml portions of solutions 4-6 to commence the second 24 hour soaking cycle. Care was taken to make sure that the solution the lens is soaked in during the second cycle is identical to the solution in the first cycle. Thus, each pair of lenses is soaked in identical concentrations of Solutions 4-6. After 24 hours, the lenses are removed. The solutions are tested to determine the concentration domaphen bromide in solution. The inhibition % is calculated and recorded in Table 3 corresponding to 48 hour soak time. The lenses were again soaked for a third and fourth soak cycle. The domaphen bromide inhibition % was recorded after the third and fourth soak-cycle and recorded in Table 3 corresponding to the 72 hour and 96 hour soak times, respectively.

[4] = Loading time by soaking commercial contact lenses in 3 ml contact cases; conditions: most of buffer system
Experimental: The loading time for most of buffer system is about 12-24 hours by soaking commercial contact lenses inside the 3 ml contact cases with a certain concentration of domaphen bromide solution.

[5] = Uptake of domaphen bromide by lens in citrate buffer system
Experimental: Three solutions made according to the formulation of Example 1 were made with a 25 ppm (Solution 10), 50 ppm (Solution 11) and 100 ppm (Solution 12) domaphen bromide concentrations, except the borate buffer system was replaced with an equivalent amount of a citrate buffer system and the water amount was adjusted accordingly. Two 3 ml portions of Solutions 10-12 in solution were placed in six separate vials. A total of six Sureview™ lens (Johnson & Johnson, New Brunswick, N.J.) were placed in the vials—one lens per each vial. The vials remained in the lens for a first 24 hour soaking cycle. After 24 hours, the lenses were removed. The amount of domaphen bromide remaining in each of the 3 ml solutions is measured by ultraviolet visible (UV/VIS) spectrometer analytical method. Inhibition % is calculated to reflect the amount of domaphen bromide that remains in the solution expressed as a percentage of the total amount of domaphen bromide. Inhibition % is recorded in Table 5 corresponding to a soaking time of 24 hours. This completed the first test cycle. The lenses removed during the first soaking cycle were placed in six fresh vials containing two 3 ml portions of solutions 10-12 to commence the second 24 hour soaking cycle. Care was taken to make sure that the solution the lens is soaked in during the second cycle is identical to the solution in the first cycle. Thus, each pair of lenses is soaked in concentrations of Solutions 10-12 identical to the concentration that the lens was soaked in during the first soak cycle. After 24 hours, the lenses are removed. The solutions are tested to determine the concentration domaphen bromide in solution. The inhibition % is calculated and recorded in Table 5 corresponding to 48 hour soak time. The lenses were again soaked for a third and fourth soak cycle. The domaphen bromide inhibition % was recorded after the third and fourth soak cycle and recorded in Table 5 corresponding to the 72 hour and 96 hour soak times, respectively.

SMILES: CCCCCCCCCCCC[N+](C)(C)CCOc1ccccc1 [Domiphen Bromide]
- Inhibition % in 25 ppm Domiphen Bromide ([1]; soaking time 24 hours): 43.92% and 51.40%
- Inhibition % in 25 ppm Domiphen Bromide ([1]; soaking time 48 hours): 50.19% and 51.75%
- Inhibition % in 25 ppm Domiphen Bromide ([1]; soaking time 72 hours): 52.34% and 47.54%
- Inhibition % in 25 ppm Domiphen Bromide ([1]; soaking time 96 hours): 41.31% and 34.37%
- Inhibition % in 50 ppm Domiphen Bromide ([1]; soaking time 24 hours): 47.12% and 49.78%
- Inhibition % in 50 ppm Domiphen Bromide ([1]; soaking time 48 hours): 49.51% and 49.86%
- Inhibition % in 50 ppm Domiphen Bromide ([1]; soaking time 72 hours): 46.67% and 48.35%
- Inhibition % in 50 ppm Domiphen Bromide ([1]; soaking time 96 hours): 34.47% and 37.30%
- Inhibition % in 100 ppm Domiphen Bromide ([1]; soaking time 24 hours): 48.87% and 47.95%
- Inhibition % in 100 ppm Domiphen Bromide ([1]; soaking time 48 hours): 46.77% and 47.52%
- Inhibition % in 100 ppm Domiphen Bromide ([1]; soaking time 72 hours): 43.55% and 45.54%
- Inhibition % in 100 ppm Domiphen Bromide ([1]; soaking time 96 hours): 34.67% and 37.15%
- Inhibition % in 25 ppm Domiphen Bromide ([2]; soaking time 24 hours): 21.85%
- Inhibition % in 25 ppm Domiphen Bromide ([2]; soaking time 48 hours): 36.68% and 35.57%
- Inhibition % in 25 ppm Domiphen Bromide ([2]; soaking time 72 hours): 33.41% and 33.18%
- Inhibition % in 25 ppm Domiphen Bromide ([2]; soaking time 96 hours): 31.54% and 39.03%
- Inhibition % in 50 ppm Domiphen Bromide ([2]; soaking time 24 hours): 29.80% and 29.88%
- Inhibition % in 50 ppm Domiphen Bromide ([2]; soaking time 48 hours): 36.31% and 32.62%
- Inhibition % in 50 ppm Domiphen Bromide ([2]; soaking time 72 hours): 31.35% and 37.25%
- Inhibition % in 50 ppm Domiphen Bromide ([2]; soaking time 96 hours): 28.30% and 37.79%
- Inhibition % in 100 ppm Domiphen Bromide ([2]; soaking time 24 hours): 14.68% and 17.15%
- Inhibition % in 100 ppm Domiphen Bromide ([2]; soaking time 48 hours): 19.08% and 15.10%
- Inhibition % in 100 ppm Domiphen Bromide ([2]; soaking time 72 hours): 12.02% and 18.58%
- Inhibition % in 100 ppm Domiphen Bromide ([2]; soaking time 96 hours): 14.11% and 20.21%
- loading percentage (100% minus Inhibition%) ([2]; borate buffer, as high as): 70-80%
- Domiphen bromide remaining in solution (% of total) ([3]; 25 ppm (Solution 4), soaking time 24 hours): 78.59% and 75.76%
- Domiphen bromide remaining in solution (% of total) ([3]; 25 ppm (Solution 4), soaking time 48 hours): 57.91% and 62.72%
- Domiphen bromide remaining in solution (% of total) ([3]; 25 ppm (Solution 4), soaking time 72 hours): 59.19% and 53.50%
- Domiphen bromide remaining in solution (% of total) ([3]; 25 ppm (Solution 4), soaking time 96 hours): 55.13% and 52.65%
- Domiphen bromide remaining in solution (% of total) ([3]; 50 ppm (Solution 5), soaking time 24 hours): 73.59% and 67.65%
- Domiphen bromide remaining in solution (% of total) ([3]; 50 ppm (Solution 5), soaking time 48 hours): 68.18% and 66.35%
- Domiphen bromide remaining in solution (% of total) ([3]; 50 ppm (Solution 5), soaking time 72 hours): 58.25% and 56.17%
- Domiphen bromide remaining in solution (% of total) ([3]; 50 ppm (Solution 5), soaking time 96 hours): 80.84% and 81.31%
- Domiphen bromide remaining in solution (% of total) ([3]; 100 ppm (Solution 6), soaking time 24 hours): 68.39% and 63.58%
- Domiphen bromide remaining in solution (% of total) ([3]; 100 ppm (Solution 6), soaking time 48 hours): 65.50% and 63.71%
- Domiphen bromide remaining in solution (% of total) ([3]; 100 ppm (Solution 6), soaking time 72 hours): 56.54% and 58.19%
- Domiphen bromide remaining in solution (% of total) ([3]; 100 ppm (Solution 6), soaking time 96 hours): 53.91% and 59.25%
- loading time [4]: 12 to 24 h
- Domiphen bromide remaining in solution (%) ([5]; 25 ppm (Solution 10), soaking time 24 hours): 63.20% and 75.66%
- Domiphen bromide remaining in solution (%) ([5]; 25 ppm (Solution 10), soaking time 48 hours): 71.57% and 73.25%
- Domiphen bromide remaining in solution (%) ([5]; 25 ppm (Solution 10), soaking time 72 hours): 64.34% and 76.59%
- Domiphen bromide remaining in solution (%) ([5]; 25 ppm (Solution 10), soaking time 96 hours): 59.17% and 64.89%
- Domiphen bromide remaining in solution (%) ([5]; 50 ppm (Solution 11), soaking time 24 hours): 76.51% and 80.02%
- Domiphen bromide remaining in solution (%) ([5]; 50 ppm (Solution 11), soaking time 48 hours): 78.39% and 72.39%
- Domiphen bromide remaining in solution (%) ([5]; 50 ppm (Solution 11), soaking time 72 hours): 67.91% and 77.42%
- Domiphen bromide remaining in solution (%) ([5]; 50 ppm (Solution 11), soaking time 96 hours): 59.28% and 69.87%
- Domiphen bromide remaining in solution (%) ([5]; 100 ppm (Solution 12), soaking time 24 hours): 75.59% and 77.95%
- Domiphen bromide remaining in solution (%) ([5]; 100 ppm (Solution 12), soaking time 48 hours): 79.63% and 70.90%
- Domiphen bromide remaining in solution (%) ([5]; 100 ppm (Solution 12), soaking time 72 hours): 71.04% and 81.39%
- Domiphen bromide remaining in solution (%) ([5]; 100 ppm (Solution 12), soaking time 96 hours): 62.97% and 74.47%
